We go through 6 compounds from patent US20240094229A1, “CRISPR-CAS /TRANSCRIPTION FACTOR-BASED COMPETITION ASSAY FOR DETECTION OF MOLECULAR ANALYTES” (Arizona Board of Regents on Behalf of Arizona State …, priority 2022, published 2024).

Each structure is given as a SMILES string. pEC50: −log10 of the molar value. Where “and” joins values, the source holds several entries; their conditions need not be identical. Identical values can stand only once. Counter-ions that a name gives are not always drawn. Where only a bound is given, the exact number is not on record here.

Assay [1] concerns the target T1, TetR (Escherichia coli, UniProt P04483).
T1 construct: His tag; made in house; host or cells: E. coli BL21 Star (DE3)
The assay is described as follows: TetR biosensor, lateral flow readout. It is filed as biochemical. Particulars: for second (test) band on lateral flow strip: TetR biosensor, 20-nt gRNA, 30 minutes cleavage. As to the method: (§1) DNA/TF/small molecule samples were incubated and added to Cas12a reactions containing 106 nM Cas12a, 100 nM gRNA, and 200 nM FAM-[…]-Biotin (SEQ ID NO: 38) or 5′FAM-TTTT(internal T-Biotin)TTTTT-BHQ1 (SEQ ID NO: 38) reporter (IDT). The Cas12a concentration was increased to speed up the reaction time. Samples were incubated for 30 minutes at 37° C. on a thermocycler block. The 10 μl samples were added directly to the dipstick, HybriDetect Universal Lateral Flow Assays from Milenia Biotec (MGHD1) and placed in 100 μl of LF running buffer containing 50% PEG 800. PEG was used to slow capillary flow down, giving reporter strands more time to interact with gold nanoparticle-antibody conjugates before flowing down the assay. This provided cleaner negative results. After 2 minutes, dipsticks were removed and imaged using a cellphone camera.
The trans-cleavage capabilities of Cas12a can cleave any single-stranded DNA in the system, enabling a variety of chemical modifications to be used in the single-stranded reporter. This feature allows for implementation of a visible paper-based lateral flow readout system using reporters with FAM and biotin modifications on either end (19, 21-26). When paired with a lateral flow assay, the fully intact reporter binds to the first line (control line) along with an attached gold nanoparticle/antibody complex, and can be visualized, as shown in FIG. 10. When Cas12a enzyme is active, the reporter is cleaved and the portion containing the gold nanoparticle flows down the assay and can be visualized by the formation of the second band. Thus, the presence of two bands is used to indicate the presence of the target small molecule.
Next, the lateral flow readout was tested by introducing aTc, Doxy, and IPTG to the TetR biosensor. The samples were incubated with Cas12a cleavage mixture containing the 20-nt gRNA. […] Thus, the lateral flow assay can provide a visual readout mechanism for the biosensor, and the assay remains small-molecule specific.
To ensure the biosensor could provide adequate sensitivity, limit of detection experiments were repeated using TetR for detecting aTc and Doxy on the lateral flow assays.

Assay [2] deals with T1, TetR. The assay is described as follows: TetR biosensor, Cas12a cleavage reaction with fluorescence readout, detection of aTc and Doxy. Type of assay: biochemical. The protocol: (§2) Target and nontarget strands (NTS) were annealed at a 1:2 ratio in 1× TAE+12.5 mM Mg^2+ for 5 minutes at 95° C., then snap cooled. To form the DNA/TF complex, 100 nM dsTarget complexes were incubated with 10 μM corresponding transcription factors (unless otherwise stated) for 15 minutes at 37° C. in incubation buffer (40 mM Tris-HCl 8 mM MgCl2, 20 mM NaCl, pH 8). Small molecules were added next, following the same incubation procedure. Prior to addition, small molecules were suspended in water, DMSO or ethanol.
(§3) To monitor small molecule detection, 2 μl of the DNA/TF or DNA/TF/SM mixture were added to 10 μl total Cas12a cleavage reaction. […] Cleavage reactions were then immediately added to a microplate such as a Corning 384-well Black Flat Bottom Plates and read on a SynergyNeo2 Biotek fluorescence plate reader. Fluorescence measurements were taken with 487 nm excitation, 528 nm emission from the bottom of the plate for 2 hours. Fluorescence curves show raw fluorescence images unless otherwise stated.
(§4) Dose response curves were fit on OriginLab graphing software using equation 1. A1 is the minimum asymptote, A2 is the maximum asymptote, X is the log of a given dosage, and p is the hill slope. The center of the curve is equal to Log x0, so the half response or EC 50=10^Logx0.
The limit of detection for the biosensor was tested by introducing a range of small molecules from 4 nM to 40 μM using a 50:1 TetR dimer/dsDNA ratio (FIGS. 3E and F). […] The dose response curve of the biosensor was further assessed using the EC 50 value, which represents the concentration of a drug or analyte needed to reach a half maximum output signal based on a protein-analyte interaction.
Detection limits were also considered using the standard definition of LOD which considers LOD to be equal to the fluorescence of the blank sample plus three times the standard deviation (Table 7 and Table 8). The detection limit was determined using the equation (39):
Here, Sbl is equal to the mean of the SM negative samples and kSbl is the number of standard deviations of the negative sample added. For the Doxy experiments, 8 replicates were run and k=3. […] The detection limit (bolded) was then determined as the lowest concentration corresponding to a fluorescence signal great than Sm (the mean of small molecule negative samples+3× the standard deviation).

For another assay, the target named is T2, CymR (Pseudomonas putida, UniProt O33453, A171V/S110G).
T2 construct: His tag; made in house
T2 sequence (O33453 whole entry S110G/A171V): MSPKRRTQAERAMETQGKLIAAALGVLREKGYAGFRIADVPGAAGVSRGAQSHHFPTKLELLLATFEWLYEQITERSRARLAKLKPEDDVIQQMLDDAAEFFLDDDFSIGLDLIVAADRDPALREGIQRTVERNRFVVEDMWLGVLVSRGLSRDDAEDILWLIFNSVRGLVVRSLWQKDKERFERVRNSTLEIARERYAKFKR
It is filed as biochemical. Particulars: CymR biosensor, slope of kinetic curves. As to the method: as §2, §3, §4

The test system of the next assay is MphR. The experiment in a line: MphR biosensor, lateral flow readout for erythromycin. It is filed as biochemical. Particulars: 15 minutes of cleavage. The protocol: as §1, with “Samples were incubated for 30 minutes at 37° C. on a thermocycler block.” left out
The robustness of the lateral flow readout scheme was further tested using the TF MphR to detect the antibiotic erythromycin. […] A closer look at the mean pixel intensity of the bands for the assays for 1, 0.5, 0.25, 0.05 μM and no SM confirm a decrease below 1 μM but show a readable signal in the ˜100 nM range (FIG. 14B). Lateral flow readout was also tested using the LacI-IPTG biosensor. A higher ratio between the IPTG+ and − samples were seen even with high concentrations of Lad, but a discernible difference in SM+ samples was still visualized (FIG. 15).

Another assay has as its system Cas12a. The assay is described as follows: Toxicity study for DMSO on Cas12a activation. Type of assay: biochemical, Lachnospiraceae bacterium. Particulars: 0.03% DMSO. The protocol:
The toxicity of solvents on Cas12a activation was tested by titrating in DMSO and monitoring the fluorescence output over two hours. A more significant decrease in activation was observed above 1% DMSO.

[3] abbreviates: 10 μM TetR, 50:1 TetR dimer/dsDNA ratio.
[4] abbreviates: EC 50, 10 μM TetR, 50:1 TetR dimer/dsDNA ratio, small molecule 4 nM to 40 μM.
[5] abbreviates: EC:50, 5 nM dsDNA, 500 nM TF (TetR), 24 nt gRNA, 1 h.
The mark [6] stands for this setting: EC:50, 50 nM dsDNA, 5 μM TF (TetR), 20 nt gRNA, 30 minutes of cleavage.
Where [7] appears, read: EC:50, 50 nM dsDNA, 5 μM TF (TetR), 24 nt gRNA, 1 h.
Where [8] appears, read: EC:50, 100 nM dsDNA, 2 μM TF (TetR), 1 h.
The mark [9] stands for this setting: EC:50, 100 nM dsDNA, 10 μM TF (TetR), 1 h, 50-fold TetR dimer:DNA.
Where [10] appears, read: EC:50, 100 nM dsDNA, 20 μM TF (TetR), 1 h.

T1 sequence (P04483 whole entry): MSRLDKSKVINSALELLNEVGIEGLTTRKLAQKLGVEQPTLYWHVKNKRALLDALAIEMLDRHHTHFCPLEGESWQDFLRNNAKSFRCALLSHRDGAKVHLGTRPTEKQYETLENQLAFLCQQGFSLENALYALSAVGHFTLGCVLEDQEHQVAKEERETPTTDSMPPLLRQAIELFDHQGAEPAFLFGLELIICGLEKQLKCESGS

As to `CC(C)S[C@@H]1O[C@H](CO)[C@H](O)[C@H](O)[C@H]1O` [IPTG, isopropyl β-D-1-thiogalactopyranoside], on TetR [1], the “second (test) band on lateral flow strip” value is reported as “little to no banding”.
The term pEC50 denotes −log10 of the EC50, conventionally taken in molar units. `Cc1c2c(c(O)c3c(O)cccc13)C(=O)[C@]1(O)C(=O)C(C(N)=O)=C(O)[C@@H](N(C)C)[C@@H]1C2` [aTc, anhydrotetracycline-HCl]: the pEC50 is 6.42 at TetR [1]; 5.37 at TetR [2] (setting [4]); 7.29 on TetR [2] (EC:50, 5 nM dsDNA, 500 nM TF (TetR), 20 nt gRNA, 30 minutes of cleavage); 7.30 on TetR [2] (setting [5]); 5.82 on TetR [2] (setting [6]); 5.75 on TetR [2] (setting [7]). Besides, the pEC50 at TetR [2] (setting [8]) was 6.08; at TetR [2] (setting [9]), 5.35; at TetR [2] (setting [10]), 4.98. Moreover, the “second (test) band on lateral flow strip” value on TetR [1] was “strong second band”. For the same compound, the “concentration showing a discernible signal” value at TetR [1] (lateral flow, 30 minutes of cleavage) came to 400 nM. Moreover, on TetR [2] (setting [3]), the “concentration at complete loss of signal” value is 0.4 µM. The “concentration giving maximum (near maximum) fluorescence output” value on TetR [2] (setting [3]) came out at 10 µM. Moreover, the “Fluorescence Mean” value at TetR [2] (20 nt gRNA, Concentration 0.005 (unit not given)) came to 21303.25; on TetR [2] (20 nt gRNA, Concentration 0.01 (unit not given)), 21302; at TetR [2] (20 nt gRNA, Concentration 0.05 (unit not given)) it was 24918.25; at TetR [2] (20 nt gRNA, Concentration 0.1 (unit not given)), 32806; on TetR [2] (20 nt gRNA, Concentration 1 (unit not given)) it was 40622.5; on TetR [2] (24 nt gRNA, Concentration 0.005 (unit not given)), 9199.5. The “Fluorescence Mean” value at TetR [2] (24 nt gRNA, Concentration 0.01 (unit not given)) is on record as 8795; at TetR [2] (24 nt gRNA, Concentration 0.05 (unit not given)), 12129.5; at TetR [2] (24 nt gRNA, Concentration 0.1 (unit not given)), 20059; at TetR [2] (24 nt gRNA, Concentration 1 (unit not given)) it was 30309.5.
For the compound `CC(C)c1ccc(C(=O)O)cc1` [cuminic acid], the “linear region of cleavage rate vs SM concentration (calibration curve)” value at CymR is at most 50 µM.
For `C[C@H]1c2cccc(O)c2C(=O)C2=C(O)[C@]3(O)C(=O)C(C(N)=O)=C(O)[C@@H](N(C)C)[C@@H]3[C@@H](O)[C@@H]21` [Doxy, doxycycline], the pEC50 is 7.57 at TetR [1]; 6.12 at TetR [2] (setting [4]); 7.06 at TetR [2] (setting [5]); 6.37 on TetR [2] (setting [6]); 5.80 at TetR [2] (setting [7]); 6.96 at TetR [2] (setting [8]). The pEC50 at TetR [2] (setting [9]) is 6.02; on TetR [2] (setting [10]), 5.40 and 5.37.
On to `CC[C@H]1OC(=O)[C@H](C)[C@@H](O[C@H]2C[C@@](C)(OC)[C@@H](O)[C@H](C)O2)[C@H](C)[C@@H](O[C@@H]2O[C@H](C)C[C@H](N(C)C)[C@H]2O)[C@](C)(O)C[C@@H](C)C(=O)[C@H](C)[C@@H](O)[C@]1(C)O` [Erythromycin], for which the “concentration range with readable signal (mean pixel intensity)” value in the assay with MphR is reported as about 100 nM.
For `C[S+](C)[O-]` [DMSO], in the assay with Cas12a, the “effects on Cas12a cleavage at experimental levels” value is reported as “not detrimental”.
